The values that follow come from patent US20250101028A1, “HETEROCYCLIC COMPOUNDS, COMPOSITIONS THEREOF, AND METHODS OF TREATMENT THEREWITH” (BeiGene, Ltd., priority 2022, published 2025).

In this test the target is T1, GST-tagged GDP-loaded KRAS G12V (amino acids 1-169) (Homo sapiens, UniProt P01116, G12V).
T1 construct: GST-tagged GDP-loaded KRAS G12V (amino acids 1-169); made in house; host or cells: E. coli
The experiment in a line: KRAS G12V probe displacement assay (TR-FRET). In kind it is binding. The following applies: displacement of biotinylated probe 2 from GDP-loaded KRAS G12V. The method, then:
KRAS WT and KRAS G12V Probe Displacement Assay
This assay was used to identify compounds which bind to GDP-loaded KRAS protein and are able to displace a biotinylated probe occupying the KRAS binding site. GST-tagged GDP-loaded WT KRAS (amino acids 1-169) and GST-tagged GDP-loaded KRAS G12V (amino acids 1-169) were expressed in E. coli and purified in house. All protein and reaction solutions were prepared in assay buffer containing 50 mM HEPES pH7.5, 50 mM NaCl, 1 mM MgCl2, 1 mM TCEP, 0.01% BSA, and 0.008% Brij-35. Purified WT KRAS (3 nM final concentration) or KRAS G12V protein (2 nM final concentration) was incubated with a 3-fold serially diluted compound in the assay plate (384 well microplate, black, Corning). Plates are incubated at 24° C. for 1 hr. Following the incubation, biotinylated probe 1 (60 nM final assay concentration) for WT KRAS and biotinylated probe 2 (2.5 nM final assay concentration) for KRAS G12V was added to the assay plate, respectively. After 1 hr incubation at 24° C., Mab Anti-GST-Tb cryptate (Cisbio) and Streptavidin-XL665 (Cisbio) were added and further incubated at 24° C. for another 1 hr. The TR-FRET signals (ex337 nm, em665 nm/620 nm) were read on BMG PHERAstar FSX instrument. The inhibition percentage of KRAS protein binding with biotinylated probe in presence of increasing concentrations of compounds was calculated based on the ratio of fluorescence at 665 nm to that at 620 nm. The IC50 value of each compound was calculated from fitting the data to the four-parameter logistic model by Dotmatics.

T1 sequence (P01116 1-169 isoform P01116-2 G12V): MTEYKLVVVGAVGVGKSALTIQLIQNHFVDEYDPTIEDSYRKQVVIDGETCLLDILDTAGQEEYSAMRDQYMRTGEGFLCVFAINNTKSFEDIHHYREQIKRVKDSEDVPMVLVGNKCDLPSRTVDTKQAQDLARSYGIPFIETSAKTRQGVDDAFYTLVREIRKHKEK

The IC50 is the midpoint of a concentration-inhibition curve. For `Nc1nc2c(-c3c(C(F)(F)F)cc4c(NC5CC6(CCC6)C5)nc(OC[C@@]56CCCN5C[C@H](F)C6)nc4c3F)ccc(F)c2s1` [Example 22, 7-fluoro-4-(8-fluoro-2-(((2R,7aS)-2-fluorotetrahydro-1H-pyrrolizin-7a(5H)-yl)methoxy)-4-(spiro[3.3]heptan-2-ylamino)-6-(trifluoromethyl)quinazolin-7-yl)benzo[d]thiazol-2-amine], the IC50 stood at 367 nM. `CC1(C#N)CCN(c2nc(OC[C@@]34CCCN3C[C@H](F)C4)nc3c(F)c(-c4ccc(F)c5sc(N)nc45)c(C(F)(F)F)cc23)CC1` [Example 69, 1-(7-(2-amino-7-fluorobenzo[d]thiazol-4-yl)-8-fluoro-2-(((2R,7aS)-2-fluorotetrahydro-1H-pyrrolizin-7a(5H)-yl)methoxy)-6-(trifluoromethyl)quinazolin-4-yl)-4-methylpiperidine-4-carbonitrile] had an IC50 of 17 nM. The result for `Cc1nc(N)nc(-c2c(Cl)cc3c(N4CCC(C#N)CC4)nc(OC[C@@]45CCCN4C[C@H](F)C5)nc3c2F)c1C(F)(F)F` [Example 107, 1-(7-(2-amino-6-methyl-5-(trifluoromethyl)pyrimidin-4-yl)-6-chloro-8-fluoro-2-(((2R,7aS)-2-fluorotetrahydro-1H-pyrrolizin-7a(5H)-yl)methoxy)quinazolin-4-yl)piperidine-4-carbonitrile] reads 73 nM.

Compound `Nc1nc2c(-c3c(C(F)(F)F)cc4c(N5CCC6(CC5)CNC(=O)CO6)nc(OC[C@@]56CCCN5C[C@H](F)C6)nc4c3F)ccc(F)c2s1` [Example 98, 9-(7-(2-amino-7-fluorobenzo[d]thiazol-4-yl)-8-fluoro-2-(((2R,7aS)-2-fluorotetrahydro-1H-pyrrolizin-7a(5H)-yl)methoxy)-6-(trifluoromethyl)quinazolin-4-yl)-1-oxa-4,9-diazaspiro[5.5]undecan-3-one] showed an IC50 of 51 nM. Next, `Nc1cc(Cl)c(C(F)(F)F)c(-c2ncc3c(NC4CC4)nc(OC[C@@]45CCCN4C[C@H](F)C5)nc3c2F)c1` [Example 110, 7-(5-amino-3-chloro-2-(trifluoromethyl)phenyl)-N-cyclopropyl-8-fluoro-2-(((2R,7aS)-2-fluorotetrahydro-1H-pyrrolizin-7a(5H)-yl)methoxy) pyrido[4,3-d]pyrimidin-4-amine]: 17 nM.

Compound `Nc1nc2c(-c3c(C(F)(F)F)cc4c(N5CCC6(CC5)CNC(=O)C6)nc(OC[C@@]56CCCN5C[C@H](F)C6)nc4c3F)ccc(F)c2s1` [Example 96, 8-(7-(2-amino-7-fluorobenzo[d]thiazol-4-yl)-8-fluoro-2-(((2R,7aS)-2-fluorotetrahydro-1H-pyrrolizin-7a(5H)-yl)methoxy)-6-(trifluoromethyl)quinazolin-4-yl)-2,8-diazaspiro[4.5]decan-3-one] registered a concentration for half-maximal inhibition (IC50) of 1.5 nM. `N#CC1CCN(c2nc(OC[C@@]34CCCN3C[C@H](F)C4)nc3c(F)c(-c4ccc(F)c5sc(N)nc45)c(C(F)(F)F)cc23)CC1F` (stereo partly drawn) [Example 72, 1-(7-(2-amino-7-fluorobenzo[d]thiazol-4-yl)-8-fluoro-2-(((2R,7aS)-2-fluorotetrahydro-1H-pyrrolizin-7a(5H)-yl)methoxy)-6-(trifluoromethyl)quinazolin-4-yl)-3-fluoropiperidine-4-carbonitrile] displayed an IC50 of 2 nM.

Compound `COCCN1CC2(CCN(c3nc(OC[C@@]45CCCN4C[C@H](F)C5)nc4c(F)c(-c5ccc(F)c6sc(N)nc56)c(C(F)(F)F)cc34)CC2)OC1=O` [Example 94, 8-(7-(2-amino-7-fluorobenzo[d]thiazol-4-yl)-8-fluoro-2-(((2R,7aS)-2-fluorotetrahydro-1H-pyrrolizin-7a(5H)-yl)methoxy)-6-(trifluoromethyl)quinazolin-4-yl)-3-(2-methoxyethyl)-1-oxa-3,8-diazaspiro[4.5]decan-2-one] displayed an IC50 of 2.5 nM. Regarding `N#CC1(F)CCN(c2nc(OC[C@@]34CCCN3C[C@H](F)C4)nc3c(F)c(-c4ccc(F)c5sc(N)nc45)c(C(F)(F)F)cc23)CC1` [Example 70, 1-(7-(2-amino-7-fluorobenzo[d]thiazol-4-yl)-8-fluoro-2-(((2R,7aS)-2-fluorotetrahydro-1H-pyrrolizin-7a(5H)-yl)methoxy)-6-(trifluoromethyl)quinazolin-4-yl)-4-fluoropiperidine-4-carbonitrile], the IC50 was 7.5 nM. With `N#C[C@H]1CCC[C@H]1Nc1nc(OC[C@@]23CCCN2C[C@H](F)C3)nc2c(F)c(-c3ccc(F)c4sc(N)nc34)c(C(F)(F)F)cc12` [Example 26, (1S,2R)-2-((7-(2-amino-7-fluorobenzo[d]thiazol-4-yl)-8-fluoro-2-(((2R,7aS)-2-fluorotetrahydro-1H-pyrrolizin-7a(5H)-yl)methoxy)-6-(trifluoromethyl)quinazolin-4-yl)amino)cyclopentane-1-carbonitrile], the IC50 came to 11 nM. Compound `Nc1nc2c(-c3c(C(F)(F)F)cc4c(N5CCCC(CO)CC5)nc(OC[C@@]56CCCN5C[C@H](F)C6)nc4c3F)ccc(F)c2s1` (stereo partly drawn) [Example 85, (1-(7-(2-amino-7-fluorobenzo[d]thiazol-4-yl)-8-fluoro-2-(((2R,7aS)-2-fluorotetrahydro-1H-pyrrolizin-7a(5H)-yl)methoxy)-6-(trifluoromethyl)quinazolin-4-yl)azepan-4-yl)methanol] yielded an IC50 of 2.3 nM.

`Nc1nc2c(-c3c(C(F)(F)F)cc4c(N5CC[C@@H](O)C5)nc(OC[C@@]56CCCN5C[C@H](F)C6)nc4c3F)ccc(F)c2s1` [Example 63, (3R)-1-(7-(2-amino-7-fluorobenzo[d]thiazol-4-yl)-8-fluoro-2-(((2R,7aS)-2-fluorotetrahydro-1H-pyrrolizin-7a(5H)-yl)methoxy)-6-(trifluoromethyl)quinazolin-4-yl)pyrrolidin-3-ol]: the IC50 was 11 nM. Take `CC1(C#N)CN(c2nc(OC[C@@]34CCCN3C[C@H](F)C4)nc3c(F)c(-c4ccc(F)c5sc(N)nc45)c(C(F)(F)F)cc23)C1` [Example 42, 1-(7-(2-amino-7-fluorobenzo[d]thiazol-4-yl)-8-fluoro-2-(((2R,7aS)-2-fluorotetrahydro-1H-pyrrolizin-7a(5H)-yl)methoxy)-6-(trifluoromethyl)quinazolin-4-yl)-3-methylazetidine-3-carbonitrile]: the concentration for half-maximal inhibition (IC50) was 70 nM. Next, `Nc1nc2c(-c3c(C(F)(F)F)cc4c(N[C@H]5C[C@@H](O)C5)nc(OC[C@@]56CCCN5C[C@H](F)C6)nc4c3F)ccc(F)c2s1` [Example 11, cis-3-((7-(2-amino-7-fluorobenzo[d]thiazol-4-yl)-8-fluoro-2-(((2R,7aS)-2-fluorotetrahydro-1H-pyrrolizin-7a(5H)-yl)methoxy)-6-(trifluoromethyl)quinazolin-4-yl)amino)cyclobutan-1-ol]: 4.4 nM; `Nc1nc2c(-c3c(C(F)(F)F)cc4c(N5CCCCC5)nc(OC[C@@]56CCCN5C[C@H](F)C6)nc4c3F)ccc(F)c2s1` [Example 67, 7-fluoro-4-(8-fluoro-2-(((2R,7aS)-2-fluorotetrahydro-1H-pyrrolizin-7a(5H)-yl)methoxy)-4-(piperidin-1-yl)-6-(trifluoromethyl)quinazolin-7-yl)benzo[d]thiazol-2-amine]: 30 nM. Next, `C[C@]1(O)CCCN(c2nc(OC[C@@]34CCCN3C[C@H](F)C4)nc3c(F)c(-c4cc(N)cc(Cl)c4C(F)(F)F)ncc23)C1` [Example 129, (S)-1-(7-(5-amino-3-chloro-2-(trifluoromethyl)phenyl)-8-fluoro-2-(((2R,7aS)-2-fluorotetrahydro-1H-pyrrolizin-7a(5H)-yl)methoxy)pyrido[4,3-d]pyrimidin-4-yl)-3-methylpiperidin-3-ol]: 15 nM; `N#CCCC1CN(c2nc(OC[C@@]34CCCN3C[C@H](F)C4)nc3c(F)c(-c4ccc(F)c5sc(N)nc45)c(C(F)(F)F)cc23)C1` [Example 41, 3-(1-(7-(2-amino-7-fluorobenzo[d]thiazol-4-yl)-8-fluoro-2-(((2R,7aS)-2-fluorotetrahydro-1H-pyrrolizin-7a(5H)-yl)methoxy)-6-(trifluoromethyl)quinazolin-4-yl)azetidin-3-yl)propanenitrile]: 12 nM; `N#C[C@H]1C[C@H](Nc2nc(OC[C@@]34CCCN3C[C@H](F)C4)nc3c(F)c(-c4ccc(F)c5sc(N)nc45)c(C(F)(F)F)cc23)C1` [Example 19, (trans)-3-((7-(2-amino-7-fluorobenzo[d]thiazol-4-yl)-8-fluoro-2-(((2R,7aS)-2-fluorotetrahydro-1H-pyrrolizin-7a(5H)-yl)methoxy)-6-(trifluoromethyl)quinazolin-4-yl)amino)cyclobutane-1-carbonitrile]: 9.9 nM. The result for `Nc1cc(Cl)c(C(F)(F)F)c(-c2ncc3c(N4CCC(O)CC4)nc(OC[C@@]45CCCN4C[C@H](F)C5)nc3c2F)c1` [Example 127, 1-(7-(5-amino-3-chloro-2-(trifluoromethyl)phenyl)-8-fluoro-2-(((2R,7aS)-2-fluorotetrahydro-1H-pyrrolizin-7a(5H)-yl)methoxy)pyrido[4,3-d]pyrimidin-4-yl)piperidin-4-ol] reads 21 nM.
